Test: Antioxidant activity against copper-induced lipid peroxidation in human LDL after 1 hr relative to probucol
Type: functional

For `COc1cc(CCc2ccc(O)c(OC)c2)cc(OC)c1`, which Activity is on record?
The Activity was 0.9%.

For `COC1=CC(=O)c2ccc3cc(OC)cc(O)c3c2C1=O`, which Activity is on record?
Its Activity is 0.4%.

Which Activity does the source give for `COC1=Cc2ccc3cc(O)ccc3c2C(=O)C1(O)CC(C)=O` (configuration not stated) here?
The Activity was 5.3%.

With `CC(C)(Sc1cc(C(C)(C)C)c(O)c(C(C)(C)C)c1)Sc1cc(C(C)(C)C)c(O)c(C(C)(C)C)c1` as the compound, how does the Activity read?
The Activity was 1%.

With `CCOC1=CC(=O)c2ccc3cc(OC)cc(O)c3c2C1=O` as the compound, how does the Activity read?
Its Activity is 0.2%.

With `Oc1ccc(/C=C/c2cc(O)cc(O)c2)cc1` as the compound, how does the Activity read?
The Activity was 0.7%.

Which Activity does the source give for `COc1cc(CCc2cc(OC)c(O)c(OC)c2)ccc1O` here?
The Activity was 7.8%.
